Source: patent US20240390340A1 (INCYTE CORPORATION, priority 2023, published 2024)
Read-outs that look alike come from different tables or passages of the source.

Legend:
KRAS G12D = KRAS G12D (Homo sapiens, UniProt P01116, G12D); test: GDP-GTP exchange assay (bodipy-GDP/GppNHp, SOS1), KRAS G12D; format: biochemical
KRAS G12V = KRAS G12V (Homo sapiens, UniProt P01116, G12V); test: GDP-GTP exchange assay (bodipy-GDP/GppNHp, SOS1), KRAS G12V; format: biochemical
Caco-2 cells = test: Caco2 assay (Papp A-B); format: in vitro ADME; conditions: test compound 50 μM, 120 min, 37° C.
Method: Caco-2 cells are grown at 37° C. in an atmosphere of 5% CO2 in DMEM growth medium supplemented with 10% (v/v) fetal bovine serum, 1% (v/v) nonessential amino acids, penicillin (100 U/mL), and streptomycin (100 μg/mL). Confluent cell monolayers are subcultured every 7 days or 4 days for Caco-2 by treatment with 0.05% trypsin containing […]. Caco-2 cells are seeded in 96-well Transwell plates. The seeding density for Caco-2 cells is 14,000 cells/well. DMEM growth medium is replaced every other day after seeding. Cell monolayers are used for transport assays between 22 and 25 days for Caco-2 cells.
Cell culture medium is removed and replaced with HBSS. To measure the TEER, the HBSS is added into the donor compartment (apical side) and receiver compartment (basolateral side). The TEER is measured by using a REMS Autosampler to ensure the integrity of the cell monolayers. Caco-2 cell monolayers with TEER values 300 Ω·cm^2 are used for transport experiments. To determine the Papp in the absorptive direction (A-B), solution of test compound (50 μM) in HBSS is added to the donor compartment (apical side), while HBSS solution with 4% BSA is added to the receiver compartment (basolateral side). The apical volume was 0.075 mL, and the basolateral volume is 0.25 mL. The incubation period is 120 min. at 37° C. in an atmosphere of 5% CO2. At the end of the incubation period, samples from the donor and receiver sides are removed and an equal volume of MeCN is added for protein precipitation. The supernatants are collected after centrifugation (3000 rpm, Allegra X-14R Centrifuge from Beckman Coulter, Indianapolis, IN) for LCMS analysis. The permeability value is determined according to the equation:
[formula] • where the flux rate (F, mass/time) is calculated from the slope of cumulative amounts of compound of interest on the receiver side, SA is the surface area of the cell membrane, VD is the donor volume, and MD is the initial amount of the solution in the donor chamber.
The symbol “+” indicates a Caco-2 value of ≤0.5, “++” indicates a Caco-2 value of >0.5 but ≤1; and “+++” indicates a Caco-2 value of >1. “NA” indicates IC50 not available.

[1] = Table H, column G12D, for compounds isolated as several atropisomers/diastereoisomers the value for the most potent isomer is quoted, read-out: KRAS G12D exchange assay IC50
[2] = Table H, column G12V, for compounds isolated as several atropisomers/diastereoisomers the value for the most potent isomer is quoted, read-out: KRAS G12V exchange assay IC50
[3] = bodipy-loaded KRAS G12D 2.5 nM, 4 h pre-incubation, value for the most potent isomer quoted for certain compounds, read-out: G12D (KRAS G12D exchange assay IC50)
[4] = KRAS G12V mutant, value for the most potent isomer quoted for certain compounds, read-out: G12V (KRAS G12V exchange assay IC50)

Chain of KRAS G12V (P01116 1-188 isoform P01116-2 G12V): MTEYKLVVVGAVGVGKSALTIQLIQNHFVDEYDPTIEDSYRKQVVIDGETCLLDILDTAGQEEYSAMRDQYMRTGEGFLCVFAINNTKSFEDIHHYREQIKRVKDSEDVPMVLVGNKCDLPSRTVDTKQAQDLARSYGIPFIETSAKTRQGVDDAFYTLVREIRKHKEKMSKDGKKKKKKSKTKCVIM
Chain of KRAS G12D (P01116 1-188 isoform P01116-2 G12D): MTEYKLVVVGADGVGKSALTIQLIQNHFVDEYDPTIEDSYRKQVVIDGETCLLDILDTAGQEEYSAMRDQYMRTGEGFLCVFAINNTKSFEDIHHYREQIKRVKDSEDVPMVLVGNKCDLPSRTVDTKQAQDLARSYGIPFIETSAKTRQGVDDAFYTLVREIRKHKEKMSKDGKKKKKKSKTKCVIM

Compound: [2H]C([2H])([2H])O[C@H]1CC[C@@H]1O[C@H]1C[C@H](c2cc3c(C)nc4c(F)c(-c5cccc(Cl)c5Cl)c(CCC#N)cc4c3n2[C@H]2[C@H]3CN[C@@H]2C3)N(C(=O)C2CC2)C1 (stereo in doubt) [Example 80, trans-3-(1-((1R,4R,5S)-2-Azabicyclo[2.1.1]hexan-5-yl)-2-((2R,4S)-1-(cyclopropanecarbonyl)-4-(2-(methoxy-d3)cyclobutoxy)pyrrolidin-2-yl)-7-(2,3-dichlorophenyl)-6-fluoro-4-methyl-1H-pyrrolo[3,2-c]quinolin-8-yl)propanenitrile]
- IC50 (KRAS G12D; [1]): ≤ 100 nM
- IC50 (KRAS G12V; [2]): ≤ 100 nM
- Caco-2 (Caco-2 cells): ++ (a Caco-2 value of >0.5 but ≤1)

Compound: COc1ncccc1O[C@H]1C[C@H](c2cc3c(C)nc4c(F)c(-c5cccc(Cl)c5Cl)c(CCC#N)cc4c3n2[C@H]2[C@H]3CN[C@@H]2C3)N(C(=O)C2CC2)C1 [Example 1, 3-(1-((1R,4R,5S)-2-Azabicyclo[2.1.1]hexan-5-yl)-2-((2R,4S)-1-(cyclopropanecarbonyl)-4-((2-methoxypyridin-3-yl)oxy)pyrrolidin-2-yl)-7-(2,3-dichlorophenyl)-6-fluoro-4-methyl-1H-pyrrolo[3,2-c]quinolin-8-yl)propanenitrile]
- IC50 (KRAS G12D; [1]): ≤ 100 nM
- IC50 (KRAS G12V; [2]): ≤ 100 nM
- Caco-2 (Caco-2 cells): +++ (a Caco-2 value of >1)

Compound: COc1cc(O[C@H]2C[C@H](c3cc4c(C(C)O)nc5c(F)c(-c6cccc(Cl)c6Cl)c(CCC#N)cc5c4n3[C@H]3[C@H]4CN[C@@H]3C4)N(C(=O)C3CC3)C2)ccn1 (stereo partly drawn) [Example 2, 3-(1-((1R,4R,5S)-2-Azabicyclo[2.1.1]hexan-5-yl)-2-((2R,4S)-1-(cyclopropanecarbonyl)-4-((2-methoxypyridin-4-yl)oxy)pyrrolidin-2-yl)-7-(2,3-dichlorophenyl)-6-fluoro-4-(1-hydroxyethyl)-1H-pyrrolo[3,2-c]quinolin-8-yl)propanenitrile]
- IC50 (KRAS G12D; [1]): ≤ 100 nM
- IC50 (KRAS G12V; [2]): ≤ 100 nM
- Caco-2 (Caco-2 cells): +++ (a Caco-2 value of >1)

Compound: Cc1cc(CO[C@H]2C[C@H](c3cc4c(C)nc5c(F)c(-c6cccc(Cl)c6Cl)c(CCC#N)cc5c4n3[C@H]3[C@H]4CN[C@@H]3C4)N(C(=O)C3CC3)[C@@H]2C)ns1 [Example 3]
- IC50 (KRAS G12D; [1]): ≤ 100 nM
- IC50 (KRAS G12V; [2]): ≤ 100 nM
- Caco-2 (Caco-2 cells): ++ (a Caco-2 value of >0.5 but ≤1)

Compound: Cc1nc2c(F)c(-c3cccc(Cl)c3Cl)c(CCC#N)cc2c2c1cc([C@H]1C[C@H](n3cc(C(C)(C)C)nn3)CN1C(=O)C1CC1)n2[C@H]1[C@H]2CN[C@@H]1C2 [Example 4, 3-(1-((1R,4R,5S)-2-Azabicyclo[2.1.1]hexan-5-yl)-2-((2R,4S)-4-(4-(tert-butyl)-1H-1,2,3-triazol-1-yl)-1-(cyclopropanecarbonyl)pyrrolidin-2-yl)-7-(2,3-dichlorophenyl)-6-fluoro-4-methyl-1H-pyrrolo[3,2-c]quinolin-8-yl)propanenitrile]
- IC50 (KRAS G12D; [1]): ≤ 100 nM
- IC50 (KRAS G12V; [2]): ≤ 100 nM
- Caco-2 (Caco-2 cells): +++ (a Caco-2 value of >1)

Compound: Cc1nc2c(F)c(-c3cccc(Cl)c3Cl)c(CCC#N)cc2c2c1cc([C@H]1C[C@H](Oc3ccccn3)CN1C(=O)C1CC1)n2[C@H]1[C@H]2CN[C@@H]1C2 [Example 5, 3-(1-((1R,4R,5S)-2-Azabicyclo[2.1.1]hexan-5-yl)-2-((2R,4S)-1-(cyclopropanecarbonyl)-4-(pyridin-2-yloxy)pyrrolidin-2-yl)-7-(2,3-dichlorophenyl)-6-fluoro-4-methyl-1H-pyrrolo[3,2-c]quinolin-8-yl)propanenitrile]
- IC50 (KRAS G12D; [1]): ≤ 100 nM
- IC50 (KRAS G12V; [2]): ≤ 100 nM
- Caco-2 (Caco-2 cells): +++ (a Caco-2 value of >1)

Compound: Cc1nc2c(F)c(-c3cccc(Cl)c3Cl)c(CCC#N)cc2c2c1cc([C@H]1C[C@H](OCc3noc4ccccc34)CN1C(=O)C1CC1)n2[C@H]1[C@H]2CN[C@@H]1C2 [Example 6]
- IC50 (KRAS G12D; [1]): ≤ 100 nM
- IC50 (KRAS G12V; [2]): ≤ 100 nM
- Caco-2 (Caco-2 cells): + (a Caco-2 value of ≤0.5)

Compound: Cc1cc(CO[C@H]2C[C@H](c3cc4c(C)nc5c(F)c(-c6cccc(Cl)c6Cl)c(CCC#N)cc5c4n3[C@H]3[C@H]4CN[C@@H]3C4)N(C(=O)C3CC3)C2)no1 [Example 7]
- IC50 (KRAS G12D; [1]): ≤ 100 nM
- IC50 (KRAS G12V; [2]): ≤ 100 nM
- Caco-2 (Caco-2 cells): ++ (a Caco-2 value of >0.5 but ≤1)

Compound: Cc1nc2c(F)c(-c3cccc(Cl)c3Cl)c(CCC#N)cc2c2c1cc([C@H]1C[C@H](OCc3ccnn3C(F)F)CN1C(=O)C1CC1)n2[C@H]1[C@H]2CN[C@@H]1C2 [Example 8]
- IC50 (KRAS G12D; [1]): ≤ 100 nM
- IC50 (KRAS G12V; [2]): ≤ 100 nM
- Caco-2 (Caco-2 cells): + (a Caco-2 value of ≤0.5)

Compound: Cc1nc2c(F)c(-c3cccc(Cl)c3Cl)c(CCC#N)cc2c2c1cc([C@H]1C[C@H](OCc3nccs3)CN1C(=O)C1CC1)n2[C@H]1[C@H]2CN[C@@H]1C2 [Example 9]
- IC50 (KRAS G12D; [1]): ≤ 100 nM
- IC50 (KRAS G12V; [2]): ≤ 100 nM
- Caco-2 (Caco-2 cells): + (a Caco-2 value of ≤0.5)

Compound: Cc1nc2c(F)c(-c3cccc(Cl)c3Cl)c(CCC#N)cc2c2c1cc([C@H]1C[C@H](OCc3cccc(C(F)(F)F)n3)CN1C(=O)C1CC1)n2[C@H]1[C@H]2CN[C@@H]1C2 [Example 10]
- IC50 (KRAS G12D; [1]): ≤ 100 nM
- IC50 (KRAS G12V; [2]): ≤ 100 nM
- Caco-2 (Caco-2 cells): ++ (a Caco-2 value of >0.5 but ≤1)

Compound: Cc1nc2c(F)c(-c3cccc(Cl)c3Cl)c(CCC#N)cc2c2c1cc([C@H]1C[C@H](OCc3cc(C(F)(F)F)sn3)CN1C(=O)C1CC1)n2[C@H]1[C@H]2CN[C@@H]1C2 [Example 11]
- IC50 (KRAS G12D; [1]): ≤ 100 nM
- IC50 (KRAS G12V; [2]): ≤ 100 nM
- Caco-2 (Caco-2 cells): + (a Caco-2 value of ≤0.5)

Compound: CO[C@@H]1CC[C@@H](O[C@H]2C[C@H](c3cc4c(C)nc5c(F)c(-c6cccc(Cl)c6Cl)c(CCC#N)cc5c4n3[C@H]3[C@H]4CN[C@@H]3C4)N(C(=O)C3CC3)C2)C1 [Example 440]
- IC50 (KRAS G12D; [3]): ≤ 100 nM
- IC50 (KRAS G12V; [4]): ≤ 100 nM

Compound: COCCn1cc(O[C@H]2C[C@H](c3cc4c(C)nc5c(F)c(-c6cccc(Cl)c6Cl)c(CCC#N)cc5c4n3[C@H]3[C@H]4CN[C@@H]3C4)N(C(=O)C3CC3)C2)cn1 [Example 441]
- IC50 (KRAS G12D; [3]): ≤ 100 nM
- IC50 (KRAS G12V; [4]): ≤ 100 nM

Compound: Cc1nc2c(F)c(-c3cccc(Cl)c3Cl)c(CCC#N)cc2c2c1cc([C@H]1C[C@H](Oc3cnn(C(C)C)c3)CN1C(=O)C1CC1)n2[C@H]1[C@H]2CN[C@@H]1C2 [Example 442]
- IC50 (KRAS G12D; [3]): ≤ 100 nM
- IC50 (KRAS G12V; [4]): ≤ 100 nM

Compound: CCOc1ncccc1O[C@H]1C[C@H](c2cc3c(C)nc4c(F)c(-c5cccc(Cl)c5Cl)c(CCC#N)cc4c3n2[C@H]2[C@H]3CN[C@@H]2C3)N(C(=O)C2CC2)C1 [Example 443]
- IC50 (KRAS G12D; [3]): ≤ 100 nM
- IC50 (KRAS G12V; [4]): ≤ 100 nM

Compound: Cc1nc2c(F)c(-c3cccc(Cl)c3Cl)c(CCC#N)cc2c2c1cc([C@H]1C[C@H](Oc3cccnc3OC(C)C)CN1C(=O)C1CC1)n2[C@H]1[C@H]2CN[C@@H]1C2 [Example 444]
- IC50 (KRAS G12D; [3]): ≤ 100 nM
- IC50 (KRAS G12V; [4]): ≤ 100 nM

Compound: Cc1nc2c(F)c(-c3cccc(Cl)c3Cl)c(CCC#N)cc2c2c1cc([C@H]1C[C@H](OCC3CC(F)(F)C3)CN1C(=O)C1CC1)n2[C@H]1[C@H]2CN[C@@H]1C2 [Example 445]
- IC50 (KRAS G12D; [3]): ≤ 100 nM
- IC50 (KRAS G12V; [4]): ≤ 100 nM

Compound: Cc1nc2c(F)c(-c3cccc(Cl)c3Cl)c(CCC#N)cc2c2c1cc([C@H]1C[C@H](Oc3cccnc3OCC(F)(F)F)CN1C(=O)C1CC1)n2[C@H]1[C@H]2CN[C@@H]1C2 [Example 446]
- IC50 (KRAS G12D; [3]): ≤ 100 nM
- IC50 (KRAS G12V; [4]): ≤ 100 nM

Compound: COc1ncc(F)cc1O[C@H]1C[C@H](c2cc3c(C)nc4c(F)c(-c5cccc(Cl)c5Cl)c(CCC#N)cc4c3n2[C@H]2[C@H]3CN[C@@H]2C3)N(C(=O)C2CC2)C1 [Example 447]
- IC50 (KRAS G12D; [3]): ≤ 100 nM
- IC50 (KRAS G12V; [4]): ≤ 100 nM

Compound: COc1ncc(Cl)cc1O[C@H]1C[C@H](c2cc3c(C)nc4c(F)c(-c5cccc(Cl)c5Cl)c(CCC#N)cc4c3n2[C@H]2[C@H]3CN[C@@H]2C3)N(C(=O)C2CC2)C1 [Example 448]
- IC50 (KRAS G12D; [3]): ≤ 100 nM
- IC50 (KRAS G12V; [4]): ≤ 100 nM

Compound: Cc1nc2c(F)c(-c3cccc(Cl)c3Cl)c(CCC#N)cc2c2c1cc([C@H]1C[C@H](OC[C@@H]3CCCN3)CN1C(=O)C1CC1)n2[C@H]1[C@H]2CN[C@@H]1C2 [Example 449]
- IC50 (KRAS G12D; [3]): ≤ 100 nM
- IC50 (KRAS G12V; [4]): ≤ 100 nM

Compound: COc1ncc(Br)cc1O[C@H]1C[C@H](c2cc3c(C)nc4c(F)c(-c5cccc(Cl)c5Cl)c(CCC#N)cc4c3n2[C@H]2[C@H]3CN[C@@H]2C3)N(C(=O)C2CC2)C1 [Example 450]
- IC50 (KRAS G12D; [3]): ≤ 100 nM
- IC50 (KRAS G12V; [4]): ≤ 100 nM

Compound: COc1ncc(C(F)(F)F)cc1O[C@H]1C[C@H](c2cc3c(C)nc4c(F)c(-c5cccc(Cl)c5Cl)c(CCC#N)cc4c3n2[C@H]2[C@H]3CN[C@@H]2C3)N(C(=O)C2CC2)C1 [Example 451]
- IC50 (KRAS G12D; [3]): ≤ 100 nM
- IC50 (KRAS G12V; [4]): ≤ 100 nM
